The test system of the test is hyaluronic acid. As to conditions: topical application, mice.

SMILES strings stand for the structures.

Protocol: The dorsal skin of mice (ddy strain/5 week old/male) was clipped with electric clippers and a Vaseline based retinoic acid preparation (containing 0.1% retinoic acid) was applied to the clipped area 10 mg/cm^2 per day for 4 consecutive days.

Turning to `CC1=C(/C=C/C(C)=C/C=C/C(C)=C/C(=O)O)C(C)(C)CCC1` [retinoic acid, all-trans retinoic acid], the “colloidal iron staining of basal cells and prickle cells of the epithelium (production of hyaluronic acid)” value is listed as “less significant”.
